Patent publication US20100028467A1, “Composition Comprising Ginsenosides Isolated From The Extract Of Processed Ginseng For Preventing And Treating Thrombotic Disease” (Ginseng Science, Inc., priority 2008, published 2010)
Where two headings read alike, the source gives them in different places.

Tests used:
[1] = tested on: AA-induced platelet aggregation; assay: Platelet aggregation inhibition test (aggregometer), AA-induced; assay type: cell-based, rat; details: for IC50: AA 30˜60×10^−6M with near-threshold collagen, rat adjusted PRP; for fold stronger activity than ASA on AA-induced aggregation: relative to ASA
Experimental: (§1) 7 weeks-year old Sprgue-Dawley male white rat (240±20 g, Orient Bio Co. Ltd) was anesthetized with diethyl ether. The blood of rat was collected from heart using a syringe containing 2.2% sodium citrate (10% v/v) and centrifuged for 10 mins with the speed of 200×g and the supernatant (upper layer) of buffy coat was collected using by serum separator (Mediland Co. Ltd, 10×250 mm) to afford platelet rich plasma containing supematant(PRP). The residue was centrifuged at 1500×g for 15 min to obtain the platelet poor plasma (PPP) and the PRP was diluted with PPP to adjust the final platelet number in PRP to 4.0-4.5×10^8/ml. Platelet number was counted using a platelet counter (Excell 18 MWI, DANAM Electronics, USA) disclosed in the literature (Lee Y. Y. et al., Anti-platelet Aggregating and anti-oxidative activities of 11-O-(4′-O-Methylgalloy)-bergenin, A new compound isolated from Crassul cv. “Himaturi”, Planta Med., 71, pp 776-777).
(§2) An aliquote (500 μl) of platelet count adjusted PRP was preincubated for 3 minutes at 37° C. in an aggregometer (490-X optical aggregometer, Chrono-Log Corp, USA) with constant stirring at 1,000 rpm. 5 μl of ginsenoside solution was added followed by successive addition of aggregation inducing agent (5 μl) at an intervals of 30 s to incubate for 30 sec with stirring at the speed of 1100 rpm. Arachidonic acid (AA, Sigma, A8798), Thromboxane A2 (U46619, Sigma, D8174) and collagen (Chrono-Log, No. 385) were used as aggregation inducing agents at the concentration of 30˜60×10^−6M (AA), 2˜4×10^−6M (U46619) and 2˜4×10^−6 g/ml (collagen) respectively. Aspirin was used as a positive control. […] The aggregation induced by AA and U46619 was determined in presence of a near-threshold concentration (1.0-1.4 μg/ml and 0.8-1.2 μg/ml, respectively) of collagen that can only induce change in platelet shape but no aggregation.
(§3) Inhibition (%) was calculated as follows: Inhibition (%)=(1−maximal aggregation of sample-treated aPRP/maximal aggregation of vehicle-treated aPRP)×100 All experiments were performed in tripticates. IC50 values were calculated from the linear regression of the plot of mean values (n=3) of percent inhibition versus concentration of corresponding ginsenoside. Sigma Plot software was used for graphing. Regression equations were calculated using Regression Wizard from the Sigma Plot equation library.

human plasma coagulation [2] = assay: Anti-coagulation test, TT (thrombin time); assay type: biochemical
Experimental: (§4) The inhibitory effect of the ginsenosides prepared in Examples on human plasma coagulation was determined by aPTT (activated partial thromboplastin time), PT(prothrombin time) and TT(thrombin time) tests.
(§5) Fresh freeze plasma was procured from the blood bank of Seoul National University Hospital (www.snuh.org) to use in the Anti-coagulation Test in human plasma.
(§6) To determine PT and TT, 0.1 ml plasma treated with test samples in the case of PT and 0.2 ml plasma treated with test samples in the case of TT was incubated at 37° C. for 2 mins respectively. 2 ml of PT reagent (Diagnostica Stago, Cat. 0605) and TT reagent (Diagnostica Stago, Cat. 0611) were added thereto to incubate for 3 mins. The coagulation time from the starting time of plasma coagulation with 0.1 ml of 20 mM calcium chloride solution to the ending time of plasma agglutination was determined using by fibrometer (BBL Fibrosystems, Fischer Scientific, USA).

human plasma coagulation [3] = assay: Anti-coagulation test, PT (prothrombin time); assay type: biochemical
Experimental: as §4, §5, §6

human plasma coagulation [4] = assay: Anti-coagulation test, aPTT (activated partial thromboplastin time); assay type: biochemical
Experimental: as §4, §5
To determine aPTT, 0.1 ml plasma treated with test samples was incubated at 37° C. for 2 mins and aPTT reagent (Diagnostica Stago, Cat. 0595) was added thereto to incubate for 3 mins. The coagulation time from the starting time of plasma coagulation with 0.1 ml of 20 mM calcium chloride solution to the ending time of plasma agglutination was determined using by fibrometer (BBL Fibrosystems, Fischer Scientific, USA).

[5] = tested on: U46619 (thromboxane A2 mimetic drug)-induced platelet aggregation; assay: Platelet aggregation inhibition test (aggregometer), U46619-induced; assay type: cell-based, rat; details: for IC50: U46619 2˜4×10^−6M with near-threshold collagen, rat adjusted PRP
Experimental: as §1, §2, §3

[6] = tested on: collagen-induced platelet aggregation; assay: Platelet aggregation inhibition test (aggregometer), collagen-induced; assay type: cell-based, rat; details: for IC50: collagen 2˜4×10^−6 g/ml, rat adjusted PRP
Experimental: as §1, §2, §3

[7] = tested on: rat platelet aggregation induced by arachidonic acid; assay: Modified smear method, arachidonic acid-induced platelet aggregation in PRP; assay type: cell-based; parameters: key: ++: full aggregation of platelet; +: intermediate aggregation of platelet; ±: slight aggregation of platelet; −: no aggregation of platelet; details: AA 4 × 10^−4 M
Experimental: (§7) The inhibitory effect of the ginsenosides prepared in Examples on the rat platelet aggregation was determined according to the procedure disclosed in the literature (Yun-Choi et al., Modified smear method for screening potential inhibitors of platelet aggregation from plant sources, J. Nat. Prod., 48(3), pp 363-370, 1985).
(§8) The blood of 7 weeks-year old Sprgue-Dawley rat (male, 240±20 g, Orient Bio Co. Ltd) was collected using a syringe containing 2.2% sodium citrate (10% v/v) and centrifuged for 10 mins with the speed of 200× g to collect platelet rich plasma containing supernatant(PRP). 0.16 ml of PRP was treated with 0.2 ml of SG, SGbu-1, and SGBu-2 as test samples and 0.2 ml of solutions of arachidonic acid (Sigma, A8798), ADP (Sigma, A4386) and collagen (Chrono-Log, No. 385) as platelet aggregation inducers (control group) to incubate for 4 mins at 37° C.
(§9) Thin Smear prepared from step 1-1 was stained and the intensity of platelet aggregation result was observed by microscopy method. The intensity of platelet aggregation result was divided into […] categories, i.e., “++”: full aggregation of platelet; “+”: intermediate aggregation of platelet; “±”: slight aggregation of platelet; “−”: no aggregation of platelet.

[8] = tested on: rat platelet aggregation induced by ADP; assay: Modified smear method, ADP-induced platelet aggregation in PRP; assay type: cell-based; parameters: key: ++: full aggregation of platelet; +: intermediate aggregation of platelet; ±: slight aggregation of platelet; −: no aggregation of platelet; details: ADP 3.2 × 10^−6 M
Experimental: as §7, §8, §9

[9] = tested on: rat platelet aggregation induced by collagen; assay: Modified smear method, collagen-induced platelet aggregation in PRP; assay type: cell-based; parameters: key: ++: full aggregation of platelet; +: intermediate aggregation of platelet; ±: slight aggregation of platelet; −: no aggregation of platelet; details: collagen 2 × 10^−5 g/ml
Experimental: as §7, §8, §9

| SMILES | inhibitory effect on AA-induced platelet aggregation (in words) [1] | TT (human plasma coagulation [2]) | PT (human plasma coagulation [3]) | aPTT (human plasma coagulation [4]) | IC50 [5] | IC50 [1] | fold stronger activity than ASA on AA-induced aggregation [1] | inhibitory effect on collagen-induced platelet aggregation (in words) [6] | IC50 [6] | inhibitory effect on U46619-induced platelet aggregation (in words) [5] | also measured |
| --- | --- | --- | --- | --- | --- | --- | --- | --- | --- | --- | --- |
| CC(C)=CCC[C@](C)(O)[C@H]1CC[C@]2(C)[C@@H]1[C@H](O)C[C@@H]1[C@@]3(C)CC[C@H](O[C@@H]4O[C@H](CO)[C@@H](O)[C@H](O)[C@H]4O[C@@H]4O[C@H](CO)[C@@H](O)[C@H](O)[C@H]4O)C(C)(C)[C@@H]3CC[C@]12C (racemic) [Racemic ginsenoside Rg3, ginsenoside Rg3] | exhibited inhibitory effect |  |  |  |  |  |  |  |  |  |  |
| CC(C)=CC/C=C(\C)[C@H]1CC[C@]2(C)[C@@H]1[C@H](O)C[C@@H]1[C@@]3(C)CC[C@H](O[C@@H]4O[C@H](CO)[C@@H](O)[C@H](O)[C@H]4O[C@@H]4O[C@H](CO)[C@@H](O)[C@H](O)[C@H]4O)C(C)(C)[C@@H]3CC[C@]12C [ginsenoside Rg5] |  | 14.1 s | 28.1 s | 66.0 s | 102 µM | 8 µM | 8 fold | comparable to that of ASA | 409 µM |  |  |
| CC(C)=CCC[C@](C)(O)[C@H]1CC[C@]2(C)[C@@H]1[C@H](O)C[C@@H]1[C@@]3(C)CC[C@H](O[C@@H]4O[C@H](CO)[C@@H](O)[C@H](O)[C@H]4O[C@@H]4O[C@H](CO)[C@@H](O)[C@H](O)[C@H]4O)C(C)(C)[C@@H]3CC[C@]12C [20(S)-ginsenosides Rg3, 20(S)-ginsenoside Rg3] | relatively strong inhibitory effect | 12.9 s | 23.5 s | 57.2 s | > 700 µM | 53 µM |  |  | > 700 µM |  |  |
| C=C(CCC=C(C)C)[C@H]1CC[C@]2(C)[C@@H]1[C@H](O)C[C@@H]1[C@@]3(C)CC[C@H](O[C@@H]4O[C@H](CO)[C@@H](O)[C@H](O)[C@H]4O[C@@H]4O[C@H](CO)[C@@H](O)[C@H](O)[C@H]4O)C(C)(C)[C@@H]3CC[C@]12C [ginsenoside Rk1] | strongest inhibitory effect among four tested compounds | 14.3 s | 29.8 s | 54.5 s | 78 µM | 3 µM | 22 fold | strongest inhibitory effect among four tested compounds | 197 µM | strongest inhibitory effect among four tested compounds | fold higher activity than ASA on collagen-induced aggregation ([6]; relative to ASA): 3 fold |
| CC(=O)Oc1ccccc1C(=O)O [Aspirin(ASP), Aspirin] |  |  |  |  |  |  |  |  |  |  | intensity of platelet aggregation, inducer AA ([7]; 0.7 × 10^−3 M Aspirin): −; intensity of platelet aggregation, inducer AA (value in brackets) ([7]; Aspirin (1.4 × 10^−3 M)): ±; IC50 ([5]; Platelet): 508 µM; intensity of platelet aggregation, inducer ADP ([8]; 2.8 × 10^−3 M Aspirin): −; intensity of platelet aggregation, inducer ADP (value in brackets) ([8]; Aspirin (5.5 × 10^−3 M)): ±; IC50 ([1]; Platelet): 66 µM; intensity of platelet aggregation, inducer collagen ([9]; 1.4 × 10^−3 M Aspirin): −; intensity of platelet aggregation, inducer collagen (value in brackets) ([9]; Aspirin (2.8 × 10^−3 M)): ±; IC50 ([6]; Platelet): 588 µM |
| CC(C)=CCC[C@](C)(O)[C@H]1CC[C@]2(C)[C@@H]1[C@H](O)C[C@@H]1[C@@]3(C)CC[C@H](O[C@@H]4O[C@H](CO)[C@@H](O)[C@H](O)[C@H]4O[C@@H]4O[C@H](CO)[C@@H](O)[C@H](O)[C@H]4O)C(C)(C)[C@@H]3CC[C@]12C [20(R)-ginsenosides Rg3, 20(R)-ginsenoside Rg3] |  | 13.6 s | 24.1 s | 50.3 s | 357 µM | > 100 µM |  | inhibited | 492 µM | inhibited | inhibitory effect on AA-induced platelet aggregation (in words) ([1]; listed as 20(R)-Rg3): only poor platelet antiaggregating activity; inhibitory effect on collagen-induced platelet aggregation (in words) ([6]; listed as 20(R)-Rg3): comparable to that of ASA |
